Consider 18 molecules from patent US9273014B2, “Bis(fluoroalkyl)-1,4-benzodiazepinone compounds and prodrugs thereof” (Bristol-Myers Squibb Company, priority 2012, dated 2016).

One series relates to human tumor xenografts. The experiment in a line: Human tumor xenograft models in mice (general statement). It counts as in vivo. The settings on record: orally administered (PO). How it is done:
Mice were fed food and water ad libitum. […] [table] […] When death occurred, the day of death was recorded.
For orientation: A xenograft is tissue or cells of one species grown in another, often human tumour cells in immunodeficient mice.

The target in another series is human Notch 3 (Homo sapiens, UniProt Q9UM47). The experiment in a line: Notch-CBF1 Transactivation Assay (Notch 3). The format is cell-based. As to conditions: HeLa cells co-transfected with truncated Notch 3 and CBF1 luciferase reporter; 18 hours incubation. From the text:
Notch-CBF1 Transactivation Assay
The Notch-CBF1 (C-promoter binding factor I) cell based transactivation assay is based on the ability of the released Notch intracellular domain fragments (NICDs) to function as transcription factors in conjunction with CBF1 and other nuclear factors. Luciferase assays were used to measure the antagonism of Notch-CBF1 transcriptional activity. HeLa cervical cancer cells are transiently co-transfected with pCDNA3.1/Hygro plasmids containing truncated Notch 1, Notch 2, Notch 3, or Notch 4 receptors and a PGL3 luciferase reporter vector containing 4 copies of CBF1 binding site. The cells were then tested for Notch-CBF1 activity in the absence or presence of test compounds. HeLa cells, maintained in DMEM (high glucose with HEPES), 1× glutamine/penicillin/streptomycin and 10% Fetal Bovine serum, were transiently transfected in a T175 Flask (4.5×10^6 cells/flask) using the Monster Transfection Kit (Minis #MIR2906) according to manufacturers specifications. Table 9 denotes respective DNA quantity for the transfections.
Assay media (5 μL) containing test compounds in final concentrations ranging from 5 μM to 8.4×10^−5 μM (3 fold serial dilutions) were added to the cells and the cell plates were then incubated for 18 hours at 37° C. and 5% CO2. Control wells contained DMSO vehicle (total counts) or 0.5 μM of an in-house small molecule inhibitor (background counts). Duplicates were used for each sample. Luciferase activity was measured after a 20-minute incubation with 50 μl STEADY-GLO® luciferase reagents according to manufacturer's specifications (Promega, Cat. #E2550) and analyzed by Envision plate reader (PerkinElmer, Boston, Mass.).
The antagonist effect of compounds was expressed as 100×[1−(average sample-average background)/(average total−average background)] where sample is the luciferase activity in the presence of test compound, background is equal to the luciferase activity in the presence of the small molecule inhibitor control and the total is signal induced in DMSO wells.
In general terms: In a reporter assay the amount or activity of a reporter protein is the signal.

Series [1] has as its system TALL1 Human T-cell acute lymphoblastic leukemia. Description: Human tumor xenograft model in mice, TALL1. As to conditions: oral administration, 10 mg/kg, QDx10; LCK = Log Cell Kill. It counts as in vivo. On the procedure: Human Tumor Xenograft Models in Mice
Mice were fed food and water ad libitum.
Tumor growth inhibition is calculated as follows: […]
When death occurred, the day of death was recorded.

A further series can be described thus: in vitro. The settings on record: human, microsomes, pH 7.4.
The nature of series [2]: human metabolic stability half-life assay. The settings on record: microsomes, pH 7.4.
Series [3] in a line: Prodrug evaluation: single-dose pharmacokinetics in rats. As to conditions: rat, oral gavage, dose 3.00 mg/kg.
Procedure: Male SPRAGUE DAWLEY® rats (250-300 g) were used for the pharmacokinetic studies. Rats were fasted overnight prior to dosing and fed 4 hrs post dose. In each study, groups of animals (N=2-3) received the test compound by oral gavage. Blood samples (˜0.3 mL) were collected from the jugular vein into K2EDTA-containing tubes at 0.5, 1, 3, 5, 7, and 24 h post dose. Plasma samples, obtained by centrifugation at 4° C. (1500-2000× g), were stored at −20° C. until analysis by LC/MS/MS.
The pharmacokinetic parameters were obtained by non-compartmental analysis of plasma concentration (determined by LC/MS/MS) vs. time data (ThermoKinetica Software version 5.0). The peak concentration (Cmax) and time for Cmax, Tmax, were recorded directly from experimental observations. The area under the curve from time zero to the last sampling time (AUC0-t) was calculated using a combination of linear and log trapezoidal summations. The total plasma clearance (CLTp), steady-state volume of distribution (Vss), apparent elimination half-life (t1/2) and mean residence time (MRT) were estimated after IV administration. […] The absolute oral bioavailability F was estimated as the ratio of dose-normalized AUC values following oral and IV doses.

A value given as a limit tells only on which side of the number the result lay.

Broadly, the IC50 is the concentration that gives 50% inhibition. Read a low IC50 as inhibition by little substance. For orientation: half-life means the time needed for the level to fall by half in the phase considered. The low end stands for rapid decline, the high end for slow decline.

Chain of human Notch 3 (Q9UM47 40-2321 limits assumed): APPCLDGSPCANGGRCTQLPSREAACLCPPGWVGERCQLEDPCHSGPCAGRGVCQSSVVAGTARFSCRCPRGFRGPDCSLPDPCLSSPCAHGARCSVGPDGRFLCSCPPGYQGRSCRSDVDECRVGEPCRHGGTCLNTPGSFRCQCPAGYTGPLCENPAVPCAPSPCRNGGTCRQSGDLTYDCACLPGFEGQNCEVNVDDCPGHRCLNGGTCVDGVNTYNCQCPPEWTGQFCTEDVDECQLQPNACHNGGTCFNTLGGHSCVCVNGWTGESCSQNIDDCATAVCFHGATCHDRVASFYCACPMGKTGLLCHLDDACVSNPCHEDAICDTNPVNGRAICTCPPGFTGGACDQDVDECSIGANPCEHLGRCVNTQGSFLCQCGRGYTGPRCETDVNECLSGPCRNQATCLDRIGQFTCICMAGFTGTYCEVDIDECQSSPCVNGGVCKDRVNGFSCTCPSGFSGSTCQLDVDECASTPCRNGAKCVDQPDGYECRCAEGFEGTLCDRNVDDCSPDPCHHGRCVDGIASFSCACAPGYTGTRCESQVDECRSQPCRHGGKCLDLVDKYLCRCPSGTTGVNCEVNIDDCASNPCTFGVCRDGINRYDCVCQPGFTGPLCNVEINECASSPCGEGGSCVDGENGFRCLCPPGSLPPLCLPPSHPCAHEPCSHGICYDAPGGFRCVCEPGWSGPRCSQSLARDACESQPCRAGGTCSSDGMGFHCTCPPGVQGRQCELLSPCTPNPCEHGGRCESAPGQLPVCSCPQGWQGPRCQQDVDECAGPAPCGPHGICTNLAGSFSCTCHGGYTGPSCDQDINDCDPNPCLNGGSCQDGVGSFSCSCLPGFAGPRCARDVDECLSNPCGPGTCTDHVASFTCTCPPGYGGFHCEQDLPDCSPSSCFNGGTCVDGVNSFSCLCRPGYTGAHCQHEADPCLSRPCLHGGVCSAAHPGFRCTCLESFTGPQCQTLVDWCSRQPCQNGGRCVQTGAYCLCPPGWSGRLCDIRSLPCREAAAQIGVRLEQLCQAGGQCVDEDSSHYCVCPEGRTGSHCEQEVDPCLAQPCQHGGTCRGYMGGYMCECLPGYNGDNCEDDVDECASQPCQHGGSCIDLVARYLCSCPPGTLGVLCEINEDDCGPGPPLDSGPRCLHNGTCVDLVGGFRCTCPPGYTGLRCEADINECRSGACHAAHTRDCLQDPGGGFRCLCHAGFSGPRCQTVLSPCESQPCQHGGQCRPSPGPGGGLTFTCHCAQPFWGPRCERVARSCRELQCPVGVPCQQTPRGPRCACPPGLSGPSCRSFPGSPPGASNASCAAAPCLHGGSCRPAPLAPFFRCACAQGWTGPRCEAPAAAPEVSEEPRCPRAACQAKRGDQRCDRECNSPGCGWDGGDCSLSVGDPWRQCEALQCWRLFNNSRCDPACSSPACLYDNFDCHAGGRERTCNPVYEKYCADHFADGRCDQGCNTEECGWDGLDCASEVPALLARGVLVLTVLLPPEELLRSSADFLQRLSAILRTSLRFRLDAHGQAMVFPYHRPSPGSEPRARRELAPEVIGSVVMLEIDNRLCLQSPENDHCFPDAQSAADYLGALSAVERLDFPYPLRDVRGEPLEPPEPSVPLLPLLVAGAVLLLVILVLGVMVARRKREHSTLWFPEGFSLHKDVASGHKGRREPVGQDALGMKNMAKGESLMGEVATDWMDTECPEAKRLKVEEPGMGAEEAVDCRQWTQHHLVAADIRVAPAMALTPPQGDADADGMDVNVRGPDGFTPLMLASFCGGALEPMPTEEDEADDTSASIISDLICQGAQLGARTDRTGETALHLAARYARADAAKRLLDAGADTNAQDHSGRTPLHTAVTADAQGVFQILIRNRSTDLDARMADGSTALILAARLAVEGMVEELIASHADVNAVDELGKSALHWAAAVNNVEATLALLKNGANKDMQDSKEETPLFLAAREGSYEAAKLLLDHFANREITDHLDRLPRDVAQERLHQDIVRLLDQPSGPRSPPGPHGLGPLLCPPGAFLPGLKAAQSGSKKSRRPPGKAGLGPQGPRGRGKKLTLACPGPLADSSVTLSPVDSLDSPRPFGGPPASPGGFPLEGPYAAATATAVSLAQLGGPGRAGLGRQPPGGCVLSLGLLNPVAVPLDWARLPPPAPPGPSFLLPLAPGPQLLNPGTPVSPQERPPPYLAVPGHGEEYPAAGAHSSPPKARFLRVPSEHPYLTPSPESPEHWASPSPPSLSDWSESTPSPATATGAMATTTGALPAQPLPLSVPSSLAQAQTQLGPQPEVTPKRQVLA

With `CC(C)c1cccc2c1NC(=O)[C@@H](NC(=O)[C@H](CCC(F)(F)F)[C@H](CCC(F)(F)F)C(N)=O)N=C2c1cccc(Cl)c1` [Example 3, (2R,3S)—N-((3S)-5-(3-Chlorophenyl)-9-isopropyl-2-oxo-2,3-dihydro-1H-1,4-benzodiazepin-3-yl)-2,3-bis(3,3,3-trifluoropropyl)succinamide], in the series with human tumor xenografts, the “antitumor activity in human tumor xenografts implanted in mice” value is “showed antitumor activity”. Besides, at human Notch 3, the IC50 turned out to be 1.9 nM. Besides, in series [1], the “Antitumor Activity TALL1 (LCK)” value was determined as 4.0. For the same molecule, the half-life in “in vitro” came out at 1.22 h.
`Cc1cccc(C2=N[C@H](NC(=O)[C@H](CCC(F)(F)F)[C@H](CCCC(F)(F)F)C(N)=O)C(=O)Nc3c(Cl)cccc32)c1` [Example 17, (2R,3S)—N-((3S)-9-Chloro-5-(3-methylphenyl)-2-oxo-2,3-dihydro-1H-1,4-benzodiazepin-3-yl)-3-(4,4,4-trifluorobutyl)-2-(3,3,3-trifluoropropyl)succinamide] returned an IC50 against human Notch 3 of 2.4 nM. Besides, the half-life in the series “in vitro” amounted to 0.933 h.
Consider `Cc1cccc2c1NC(=O)[C@@H](NC(=O)[C@H](CCC(F)(F)F)[C@H](CCCC(F)(F)F)C(N)=O)N=C2c1cccc(C(F)(F)F)c1` [Example 18, (2R,3S)—N-((3S)-9-Methyl-2-oxo-5-(3-(trifluoromethyl)phenyl)-2,3-dihydro-1H-1,4-benzodiazepin-3-yl)-3-(4,4,4-trifluorobutyl)-2-(3,3,3-trifluoropropyl)succinamide], for which the IC50 at human Notch 3 is 7.7 nM. The half-life in the series “in vitro” was greater than 2 h.
In the same order, the values of `NC(=O)[C@@H](CCC(F)(F)F)[C@@H](CCC(F)(F)F)C(=O)N[C@H]1N=C(c2ccccc2)c2cccc(OC3CC3)c2NC1=O` [Example 19, (2R,3S)—N-((3S)-9-(Cyclopropyloxy)-2-oxo-5-phenyl-2,3-dihydro-1H-1,4-benzodiazepin-3-yl)-2,3-bis(3,3,3-trifluoropropyl)succinamide] are 4 nM and 1.8 h.
In the same order, the values of `Cc1cccc2c1NC(=O)[C@@H](NC(=O)[C@H](CCC(F)(F)F)[C@H](CCC(F)(F)F)C(N)=O)N=C2c1cccc(C(F)(F)F)c1` [Example 20, (2R,3S)—N-((3S)-9-Methyl-2-oxo-5-(3-(trifluoromethyl)phenyl)-2,3-dihydro-1H-1,4-benzodiazepin-3-yl)-2,3-bis(3,3,3-trifluoropropyl)succinamide] are 1.4 nM and greater than 2 h.
For `Cc1ccccc1C1=N[C@H](NC(=O)[C@H](CCC(F)(F)F)[C@H](CCC(F)(F)F)C(N)=O)C(=O)Nc2c(Cl)cccc21` [Example 21, (2R,3S)—N-((3S)-9-Chloro-5-(2-methylphenyl)-2-oxo-2,3-dihydro-1H-1,4-benzodiazepin-3-yl)-2,3-bis(3,3,3-trifluoropropyl)succinamide], in that order: 6.1 nM and 1.78 h.
As to `Cc1cccc2c1NC(=O)[C@@H](NC(=O)[C@H](CCC(F)(F)F)[C@H](CCC(F)(F)F)C(N)=O)N=C2c1ccc(F)cc1` [Example 22, (2R,3S)—N-((3S)-5-(4-Fluorophenyl)-9-methyl-2-oxo-2,3-dihydro-1H-1,4-benzodiazepin-3-yl)-2,3-bis(3,3,3-trifluoropropyl)succinamide], on human Notch 3, the IC50 is 6.3 nM. Further, in “in vitro”, the half-life was greater than 2 h.
`Cc1cccc2c1NC(=O)[C@@H](NC(=O)[C@H](CCC(F)(F)F)[C@H](CCC(F)(F)F)C(N)=O)N=C2c1ccccc1` [Example 23, (2R,3S)—N-((3S)-9-Methyl-2-oxo-5-phenyl-2,3-dihydro-1H-1,4-benzodiazepin-3-yl)-2,3-bis(3,3,3-trifluoropropyl)succinamide] gave an IC50 on human Notch 3 of 8.3 nM. The same molecule came in with a half-life in the series “in vitro” of 1.68 h.
Regarding `NC(=O)[C@@H](CCC(F)(F)F)[C@@H](CCC(F)(F)F)C(=O)N[C@H]1N=C(c2ccccc2)c2cccc(C3CC3)c2NC1=O` [Example 24, (2R,3S)—N-((3S)-9-Cyclopropyl-2-oxo-5-phenyl-2,3-dihydro-1H-1,4-benzodiazepin-3-yl)-2,3-bis(3,3,3-trifluoropropyl)succinamide], on human Notch 3, half-maximal inhibition (IC50) required 2.1 nM. For the same molecule, in “in vitro”, the half-life came to 1.03 h.
For `NC(=O)[C@@H](CCC(F)(F)F)[C@@H](CCC(F)(F)F)C(=O)N[C@H]1N=C(c2cccc(C3CC3)c2)c2cccc(Cl)c2NC1=O` [Example 25, (2R,3S)—N-((3S)-9-Chloro-5-(3-cyclopropylphenyl)-2-oxo-2,3-dihydro-1H-1,4-benzodiazepin-3-yl)-2,3-bis(3,3,3-trifluoropropyl)succinamide], in that order: 2.9 nM and greater than 2 h.
Molecule `COc1cccc2c1NC(=O)[C@@H](NC(=O)[C@H](CCC(F)(F)F)[C@H](CCC(F)(F)F)C(N)=O)N=C2c1cccc(Cl)c1` [Example 26, (2R,3S)—N-((3S)-5-(3-Chlorophenyl)-9-methoxy-2-oxo-2,3-dihydro-1H-1,4-benzodiazepin-3-yl)-2,3-bis(3,3,3-trifluoropropyl)succinamide] returned an IC50 on human Notch 3 of 3.4 nM. The molecule also came in with a half-life in “in vitro” of 1.37 h.
In series [2], `COc1cccc2c1NC(=O)[C@@H](NC(=O)[C@H](CCC(F)(F)F)[C@H](CCC(F)(F)F)C(N)=O)N=C2c1ccc(Cl)cc1` [Example 27, (2R,3S)—N-((3S)-5-(4-Chlorophenyl)-9-methoxy-2-oxo-2,3-dihydro-1H-1,4-benzodiazepin-3-yl)-2,3-bis(3,3,3-trifluoropropyl)succinamide] registered a half-life at 0.5 µM of 1.92 h.
Turning to `Cc1cccc(C2=N[C@H](NC(=O)[C@H](CCC(F)(F)F)[C@H](CCC(F)(F)F)C(N)=O)C(=O)Nc3c(Cl)cccc32)c1` [Example 28, (2R,3S)—N-((3S)-9-Chloro-5-(3-methylphenyl)-2-oxo-2,3-dihydro-1H-1,4-benzodiazepin-3-yl)-2,3-bis(3,3,3-trifluoropropyl)succinamide], the IC50 at human Notch 3 stood at 7.2 nM. Further, in the series “in vitro”, the half-life came out at 1.63 h.
In the case of `Cc1ccccc1C1=N[C@H](NC(=O)[C@H](CCC(F)(F)F)[C@H](CCC(F)(F)F)C(N)=O)C(=O)Nc2ccccc21` [Example 31, (2R,3S)—N-((3S)-5-(2-Methylphenyl)-2-oxo-2,3-dihydro-1H-1,4-benzodiazepin-3-yl)-2,3-bis(3,3,3-trifluoropropyl)succinamide], half-maximal inhibition against human Notch 3 (IC50) was put at 4.6 nM. For the same molecule, the half-life in “in vitro” was determined as 1.67 h.
Consider `COc1cccc2c1NC(=O)[C@@H](NC(=O)[C@H](CCC(F)(F)F)[C@H](CCC(F)(F)F)C(N)=O)N=C2c1ccc(C(F)(F)F)cn1` [Example 33, (2R,3S)—N-((3S)-9-Methoxy-2-oxo-5-(5-(trifluoromethyl)-2-pyridinyl)-2,3-dihydro-1H-1,4-benzodiazepin-3-yl)-2,3-bis(3,3,3-trifluoropropyl)succinamide], for which the IC50 on human Notch 3 was 7.4 nM. Besides, the half-life in “in vitro” came out at 1.37 h.
For `Cc1ccc(C2=N[C@H](NC(=O)[C@H](CCC(F)(F)F)[C@H](CCC(F)(F)F)C(N)=O)C(=O)Nc3ccccc32)cc1` [Example 36, (2R,3S)—N-((3S)-5-(4-Methylphenyl)-2-oxo-2,3-dihydro-1H-1,4-benzodiazepin-3-yl)-2,3-bis(3,3,3-trifluoropropyl)succinamide], half-maximal inhibition at human Notch 3 (IC50) was put at 3 nM. This molecule registered a half-life in “in vitro” greater than 2 h.
As to `NC(=O)[C@@H](CCC(F)(F)F)[C@@H](CCC(F)(F)F)C(=O)N[C@H]1N=C(c2cccc(F)c2)c2cccc(CO)c2NC1=O` [Example 37, (2R,3S)—N-((3S)-5-(3-Fluorophenyl)-9-(hydroxymethyl)-2-oxo-2,3-dihydro-1H-1,4-benzodiazepin-3-yl)-2,3-bis(3,3,3-trifluoropropyl)succinamide], on human Notch 3, the IC50 was 9.3 nM. The half-life in the series “in vitro” is 1.02 h.
Consider `Cc1cccc2c1N(COC(=O)Cc1ccc(OP(=O)(O)O)cc1)C(=O)[C@@H](NC(=O)[C@H](CCC(F)(F)F)[C@H](CCC(F)(F)F)C(N)=O)N=C2c1cccc(F)c1` [Example 43, ((3S)-3-(((2R,3S)-3-Carbamoyl-6,6,6-trifluoro-2-(3,3,3-trifluoropropyl)hexanoyl)amino)-5-(3-fluorophenyl)-9-methyl-2-oxo-2,3-dihydro-1H-1,4-benzodiazepin-1-yl)methyl(4-(phosphonooxy)phenyl)acetate], for which, in series [3], the “% Relative Bioavailability to Example 1” value is given as 35% and the “AUC0-24 h of Example 1 after Administration of Prodrug” value is 0.193 µM·h.
